From PMC3498823 (Bioorganic & medicinal chemistry letters, 2011)
Entries after “also recorded” stand apart in the source; their conditions may differ. Values belong to the compound of their own block, whether it stands above or below them.

What was measured:
[1] = test system: in vivo preclinical antipsychotic model; details: orally active; cited from earlier work
[2] = test system: amphetamine induced hyperlocomotion in rats; experiment: reversal of amphetamine-induced hyperlocomotion; format: in vivo; details: 30 mg/kg i.p.
mGlu5 receptor [3] = details: HTS lead; cited from earlier work
mGlu5 receptor [4] = experiment: triple-add functional calcium mobilization assay, mGlu5; format: cell-based; details: PAM, Ago-PAM, weak PAM or partial antagonist
mGlu5 receptor [5] = target: mGlu5 receptor (Rattus norvegicus, UniProt P31424); experiment: as above; format: cell-based; details: PAM, Ago-PAM, weak PAM or partial antagonist
Chain of mGlu5 receptor (Rattus norvegicus, UniProt P31424) (P31424 21-1203): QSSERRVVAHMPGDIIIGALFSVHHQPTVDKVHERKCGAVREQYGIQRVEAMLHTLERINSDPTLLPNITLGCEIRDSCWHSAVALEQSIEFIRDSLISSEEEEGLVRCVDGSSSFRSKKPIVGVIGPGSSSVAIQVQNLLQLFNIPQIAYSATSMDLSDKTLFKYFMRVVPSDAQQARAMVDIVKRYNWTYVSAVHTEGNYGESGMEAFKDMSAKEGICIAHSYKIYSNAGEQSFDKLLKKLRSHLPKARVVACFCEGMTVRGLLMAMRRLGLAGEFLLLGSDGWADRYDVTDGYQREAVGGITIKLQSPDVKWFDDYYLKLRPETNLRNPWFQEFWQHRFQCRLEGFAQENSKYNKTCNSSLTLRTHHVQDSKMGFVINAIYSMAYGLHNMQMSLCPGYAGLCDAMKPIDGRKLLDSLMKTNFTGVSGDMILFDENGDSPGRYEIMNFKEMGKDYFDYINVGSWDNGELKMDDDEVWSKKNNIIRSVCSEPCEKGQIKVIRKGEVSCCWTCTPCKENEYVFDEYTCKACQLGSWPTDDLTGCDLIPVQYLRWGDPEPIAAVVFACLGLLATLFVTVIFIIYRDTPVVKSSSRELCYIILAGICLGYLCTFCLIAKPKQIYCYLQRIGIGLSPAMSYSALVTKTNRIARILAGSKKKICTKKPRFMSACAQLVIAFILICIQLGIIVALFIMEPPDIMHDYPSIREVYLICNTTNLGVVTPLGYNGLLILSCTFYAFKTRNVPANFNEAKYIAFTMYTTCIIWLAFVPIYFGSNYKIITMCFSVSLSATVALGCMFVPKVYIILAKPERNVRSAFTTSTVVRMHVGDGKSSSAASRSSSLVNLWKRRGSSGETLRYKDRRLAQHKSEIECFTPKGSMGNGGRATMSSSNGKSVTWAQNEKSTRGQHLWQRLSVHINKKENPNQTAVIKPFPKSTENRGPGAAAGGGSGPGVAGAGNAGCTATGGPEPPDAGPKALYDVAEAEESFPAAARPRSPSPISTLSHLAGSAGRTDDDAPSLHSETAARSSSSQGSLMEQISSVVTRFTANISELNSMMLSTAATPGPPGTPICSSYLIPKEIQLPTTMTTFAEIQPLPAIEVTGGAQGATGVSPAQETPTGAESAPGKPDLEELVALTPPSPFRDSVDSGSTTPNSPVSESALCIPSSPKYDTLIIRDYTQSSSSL

Chain of mGlu5 receptor (P31424 21-1203): as above

Structure (SMILES): O=C(NC1CCC1)c1ccc(C#Cc2cccc(F)c2)nc1 [VU0360172]
efficacy in an in vivo preclinical antipsychotic model [1]: efficacious

Structure (SMILES): CCCN1CCc2cc(C#Cc3ccccc3)ccc2C1=O [9c]
reversal of amphetamine-induced hyperlocomotion [2]: significant reversal; also recorded: Reversal of amphetamine-induced hyperlocomotion

Structure (SMILES): O=C(c1ccc(C#Cc2ccccc2)cc1)N1CCC(O)CC1 [VU0092273]
ligand efficiency (LE) (mGlu5 receptor [3]): ~0.5

Category (mode of pharmacology) (mGlu5 receptor [4]): Weak PAM
Structure (SMILES): CCCCN1CCc2nc(C#Cc3cccc(F)c3)ccc2C1=O [10d]

Structure (SMILES): O=C1c2ccc(C#Cc3ccccc3)cc2CCN1CC1CC1 [9f]
reversal of amphetamine-induced hyperlocomotion [2]: significant reversal

Structure (SMILES): O=C1c2ccc(C#Cc3cccc(F)c3)nc2CCN1CC1CC1 [10e]
Category (mode of pharmacology) (mGlu5 receptor [5]): partial antagonists; also recorded: Partial Antag

Category (mode of pharmacology) (mGlu5 receptor [4]): Weak PAM
Structure (SMILES): CC(C)CN1CCc2nc(C#Cc3cccc(F)c3)ccc2C1=O [10c]

Structure (SMILES): CN1CCc2nc(C#Cc3cccc(F)c3)ccc2C1=O [10b]
Category (mode of pharmacology) (mGlu5 receptor [5]): partial antagonists; also recorded: Partial Antag

Structure (SMILES): O=C1NCCc2cc(C#Cc3ccccc3)ccc21 [9a]
reversal of amphetamine-induced hyperlocomotion [2]: significant reversal
